Experimental data taken from patent US5338874A, “Cis oxalato (trans 1-1,2-cyclohexanediamine) PT(II) having optically high purity” (Tanaka Kikinzoku Kogyo K.K., priority 1993, dated 1994).

Test system: L1210
Assay: Tumor resistance against L1210 (i.p. transplanted, CDF1 mice), T/C
Assay type: in vivo
Design: key to Toxic mark (T: large weight loss): P: Effective (Over 125%); Toxic (Large Weight Loss)
Details: for Cured mice out of six / Toxic mark (T: large weight loss): i.p. on days 1, 5 and 9
Experimental: The test was conducted by prescribing L1210 in a peritoneal cavity of six CDF1 mice/one group (the number of transplanted cells is […] per mouse and prescribing the medicine in the poritoncal cavity on a first day, a fifth day and a ninth day.

| Structure (SMILES) | Cured mice out of six (6.25 mg/kg) | Cured mice out of six (12.5 mg/kg) | Toxic mark (T: large weight loss) (25 mg/kg) | Tumor Resistance T/C (%) (25 mg/kg, i.p. on days 1, 5 and 9, six CDF1 mice/group) | Cured mice out of six (6.25 mg/kg, listed as Example 2) | Cured mice out of six (6.25 mg/kg, listed as Example 3) | Cured mice out of six (12.5 mg/kg, listed as Example 2) | Cured mice out of six (12.5 mg/kg, listed as Example 3) | Activity against tumor leukemia L1210 (in words) (high optical purity compound) |
| --- | --- | --- | --- | --- | --- | --- | --- | --- | --- |
| N[C@@H]1CCCC[C@H]1N.O=C([O-])C(=O)[O-].[Pt+2] (relative stereo) [Comp. Ex., cis-oxalate(trans-1-1,2-cyclohexanediamine) Pt(II), reference compound] | 1/6 | 4/6 | T | 81 |  |  |  |  |  |
| N[C@@H]1CCCC[C@H]1N.O=C([O-])C(=O)[O-].[Pt+2] (relative stereo) [Example 1, cis-oxalato (trans-1-1,2-cyclohexanediamine) Pt(II)] | 3/6 | 2/6 | T |  | 3/6 | 3/6 | 2/6 | 2/6 | active against a tumor "leukomia L1210" |
